Laboratory results: BindingDB's records for patent US12384786 (Minghui Pharmaceutical (Shanghai), 2025)

How the values were obtained:
[1] = target: Tyrosine-protein kinase BTK (Homo sapiens, UniProt Q06187); assay: Biochemical Evaluation
[2] = target: Tyrosine-protein kinase BTK [C481S] (Homo sapiens, UniProt Q06187, C481S); assay: Biochemical Evaluation
Sequence of Tyrosine-protein kinase BTK [C481S] (Q06187 2-659 C481S limits assumed): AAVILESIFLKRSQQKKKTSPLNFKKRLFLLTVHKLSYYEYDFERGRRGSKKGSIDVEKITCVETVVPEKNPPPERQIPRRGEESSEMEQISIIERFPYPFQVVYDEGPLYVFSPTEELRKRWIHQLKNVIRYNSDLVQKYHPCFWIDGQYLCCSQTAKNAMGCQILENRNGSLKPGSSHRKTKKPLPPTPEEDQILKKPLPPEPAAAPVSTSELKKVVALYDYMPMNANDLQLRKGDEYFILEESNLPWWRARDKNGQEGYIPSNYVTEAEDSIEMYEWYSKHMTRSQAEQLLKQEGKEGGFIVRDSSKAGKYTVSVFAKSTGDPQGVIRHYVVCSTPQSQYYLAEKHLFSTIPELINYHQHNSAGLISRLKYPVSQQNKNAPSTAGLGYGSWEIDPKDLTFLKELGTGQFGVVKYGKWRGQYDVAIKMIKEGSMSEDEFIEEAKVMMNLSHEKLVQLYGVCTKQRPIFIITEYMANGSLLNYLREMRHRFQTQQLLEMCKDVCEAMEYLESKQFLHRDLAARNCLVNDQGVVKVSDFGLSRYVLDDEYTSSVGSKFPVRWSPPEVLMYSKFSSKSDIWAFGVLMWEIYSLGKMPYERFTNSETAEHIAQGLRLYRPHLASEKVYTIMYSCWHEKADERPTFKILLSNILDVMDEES

Sequence of Tyrosine-protein kinase BTK (Q06187 whole entry): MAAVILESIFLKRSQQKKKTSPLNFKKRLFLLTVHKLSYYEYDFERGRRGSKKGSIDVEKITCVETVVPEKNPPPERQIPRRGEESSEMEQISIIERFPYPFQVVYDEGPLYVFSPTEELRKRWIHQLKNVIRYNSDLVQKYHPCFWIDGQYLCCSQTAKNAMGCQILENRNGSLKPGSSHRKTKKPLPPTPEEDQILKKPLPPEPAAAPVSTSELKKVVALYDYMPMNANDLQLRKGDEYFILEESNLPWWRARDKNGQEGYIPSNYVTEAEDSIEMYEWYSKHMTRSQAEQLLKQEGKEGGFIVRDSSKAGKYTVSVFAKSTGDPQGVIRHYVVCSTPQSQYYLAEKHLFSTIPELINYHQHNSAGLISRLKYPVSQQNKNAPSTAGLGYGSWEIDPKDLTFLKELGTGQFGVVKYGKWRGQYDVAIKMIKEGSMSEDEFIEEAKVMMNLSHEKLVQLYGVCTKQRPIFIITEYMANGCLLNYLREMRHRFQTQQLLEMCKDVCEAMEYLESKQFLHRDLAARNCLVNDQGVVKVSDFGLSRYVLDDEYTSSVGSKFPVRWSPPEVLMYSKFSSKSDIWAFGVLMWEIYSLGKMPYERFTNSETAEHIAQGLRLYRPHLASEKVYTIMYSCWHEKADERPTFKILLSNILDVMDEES

## Nc1ncnc2c1c(-c1ccc(Oc3ccccc3)cc1)nn2[C@H]1CC[C@@H](O)CC1 [US12384786, Example 8A]
[1]
  IC50: 2.5 nM
[2]
  IC50: 0.7 nM
